Measurements published in US20170232083A1, “METHODS OF DIAGNOSIS AND TREATMENT OF CELIAC DISEASE IN CHILDREN” (priority 2014, published 2017).

Tested on: PBMC (polyclonal gluten-specific T cells) of paediatric and adult CD patients
Assay: IFN-γ ELISpot of PBMC after 3 day oral wheat challenge (SFU, % of maximal peptide response, dominance scores, EC50; Examples 5-6)
Type: cell-based, human
Conditions: for IFN-γ ELISpot response: after oral wheat challenge; for Cross-reactive T cell response: following wheat challenge
[1] = subject I (3-5yrs/6-10yrs part)
[2] = subject J (3-5yrs/6-10yrs part)
[3] = subject K (3-5yrs/6-10yrs part)
[4] = subject V (3-5yrs/6-10yrs part)
[5] = subject W (3-5yrs/6-10yrs part)
[6] = subject Y (3-5yrs/6-10yrs part)
[7] = subject five (3-5yrs/6-10yrs part)
[8] = subject seven (3-5yrs/6-10yrs part)
[9] = subject six (3-5yrs/6-10yrs part)
[10] = subject ten (3-5yrs/6-10yrs part)
[11] = subject two (3-5yrs/6-10yrs part)

Sequence: QPFPQPEQPIPVQ
- IFN-γ ELISpot response (patient A, 11-17 yrs, cut-off 10 SFU): 5 SFU
- Significant response as percentage of maximal peptide SFU (patient D, max peptide 30.5 SFU): ′′′ (41-70% = ′′′)
- IFN-γ ELISpot response (patient E, H, 11-17 yrs, cut-off 10 SFU): 76 SFU
- Significant response as percentage of maximal peptide SFU (patient E, max peptide 224 SFU): ′′ (21-40% = ′′)
- IFN-γ ELISpot response (patient F, 11-17 yrs, cut-off 10 SFU): 103 SFU
- Significant response as percentage of maximal peptide SFU (patient F, max peptide 178 SFU): ′′′ (41-70% = ′′′)
- IFN-γ ELISpot response (patient G, 11-17 yrs, cut-off 10 SFU): 3 SFU
- IFN-γ ELISpot response (patient H (HLA-DQ2.5 homozygote), 3-5yrs, cut-off 10 SFU): 29 SFU
- IFN-γ ELISpot response (patient H, 11-17 yrs, cut-off 10 SFU): 10 SFU
- Significant response as percentage of maximal peptide SFU (patient H, max peptide 17 SFU): ′′′ (41-70% = ′′′)
- IFN-γ ELISpot response (patient ID not given, 11-17 yrs, cut-off 10 SFU): 95 SFU
- Significant response as percentage of maximal peptide SFU (patient J, max peptide 196 SFU): ′′′ (41-70% = ′′′)
- Significant response as percentage of maximal peptide SFU (patient K, max peptide 53 SFU): ′ (11-20% = ′)
- Significant response as percentage of maximal peptide SFU (patient M, max peptide 48 SFU): ′′′ (41-70% = ′′′)
- IFN-γ ELISpot response (patient N, 3-5yrs, cut-off 10 SFU): 2 SFU
- IFN-γ ELISpot response (patient P, 11-17 yrs, cut-off 21.6 SFU): 42 SFU
- Significant response as percentage of maximal peptide SFU (patient P, max peptide 64 SFU): ′′′ (41-70% = ′′′)
- IFN-γ ELISpot response (patient Q, 11-17 yrs, cut-off 10 SFU): 51 SFU
- Significant response as percentage of maximal peptide SFU (patient Q, max peptide 97 SFU): ′′′ (41-70% = ′′′)
- IFN-γ ELISpot response (patient U, H, 11-17 yrs, cut-off 10 SFU): 27 SFU
- Significant response as percentage of maximal peptide SFU (patient U, max peptide 81 SFU): ′′ (21-40% = ′′)
- IFN-γ ELISpot response (patient V, 6-10 yrs, cut-off 10 SFU): 27 SFU
- Significant response as percentage of maximal peptide SFU (patient V, max peptide 35 SFU): + (>70% = +)
- IFN-γ ELISpot response (patient Y, 6-10 yrs, cut-off 10 SFU): 9 SFU
- IFN-γ ELISpot response (patient eleven, 6-10 yrs, cut-off 10 SFU): 9 SFU
- Significant response as percentage of maximal peptide SFU (patient five, max peptide 48 SFU): + (>70% = +)
- IFN-γ ELISpot response (patient four, 3-5yrs, cut-off 10 SFU): 10 SFU
- Significant response as percentage of maximal peptide SFU (patient four, max peptide 44 SFU): ′′ (21-40% = ′′)
- IFN-γ ELISpot response (patient seven, 6-10 yrs, cut-off 10.5 SFU): 9 SFU
- IFN-γ ELISpot response (patient ten, 3-5yrs, cut-off 10 SFU): 11 SFU
- Significant response as percentage of maximal peptide SFU (patient ten, max peptide 14.5 SFU): + (>70% = +)
- IFN-γ ELISpot response (patient three, 6-10 yrs, cut-off 10.5 SFU): 126 SFU
- IFN-γ ELISpot response (patient twelve, 11-17 yrs, cut-off 10 SFU): 20 SFU
- IFN-γ ELISpot response (patient two, 3-5yrs, cut-off 10 SFU): 53 SFU
- Significant response as percentage of maximal peptide SFU (patient two, max peptide 60 SFU): + (>70% = +)

Sequence: QPFPQPEQPIPYQ
- Cross-reactive T cell response (subject A, 11-17yrs): 8 SFU
- Significant response as a percentage of maximal peptide SFU (subject D, 11-17yrs): + (>70% = +)
- Cross-reactive T cell response (subject D, 11-17yrs): 23 SFU
- Significant response as a percentage of maximal peptide SFU (subject E, 11-17yrs): ′′ (21-40% = ′′)
- Cross-reactive T cell response (subject E, 11-17yrs): 86 SFU
- Significant response as a percentage of maximal peptide SFU (subject F, 11-17yrs): ′′′ (41-70% = ′′′)
- Cross-reactive T cell response (subject F, 11-17yrs): 84 SFU
- Cross-reactive T cell response (subject G, 11-17yrs): 2 SFU
- Cross-reactive T cell response (subject H): 3 SFU
- Cross-reactive T cell response [1]: 5 SFU
- Significant response as a percentage of maximal peptide SFU (subject J): ′′′ (41-70% = ′′′)
- Cross-reactive T cell response [2]: 124 SFU
- Significant response as a percentage of maximal peptide SFU (subject K): ′′ (21-40% = ′′)
- Cross-reactive T cell response [3]: 21 SFU
- Significant response as a percentage of maximal peptide SFU (subject P, 11-17yrs): ′′′ (41-70% = ′′′)
- Cross-reactive T cell response (subject P, 11-17yrs): 33 SFU
- Significant response as a percentage of maximal peptide SFU (subject Q, 11-17yrs): ′′′ (41-70% = ′′′)
- Cross-reactive T cell response (subject Q, 11-17yrs): 58 SFU
- Significant response as a percentage of maximal peptide SFU (subject T, 11-17yrs): + (>70% = +)
- Cross-reactive T cell response (subject T, 11-17yrs): 84 SFU
- Significant response as a percentage of maximal peptide SFU (subject U, 11-17yrs): ′′′ (41-70% = ′′′)
- Cross-reactive T cell response (subject U, 11-17yrs): 55 SFU
- Significant response as a percentage of maximal peptide SFU (subject V): ′′′ (41-70% = ′′′)
- Cross-reactive T cell response [4]: 22 SFU
- Cross-reactive T cell response [5]: 11 SFU
- Significant response as a percentage of maximal peptide SFU (subject Y): ′′′ (41-70% = ′′′)
- Cross-reactive T cell response [6]: 11 SFU
- Significant response as a percentage of maximal peptide SFU (subject five): ′′′ (41-70% = ′′′)
- Cross-reactive T cell response [7]: 30 SFU
- Cross-reactive T cell response (subject nine, 11-17yrs): 0 SFU
- Cross-reactive T cell response [8]: 8 SFU
- Significant response as a percentage of maximal peptide SFU (subject six): + (>70% = +)
- Cross-reactive T cell response [9]: 11 SFU
- Cross-reactive T cell response [10]: 9 SFU
- Significant response as a percentage of maximal peptide SFU (subject two): ′′′ (41-70% = ′′′)
- Cross-reactive T cell response [11]: 31 SFU

Sequence: QPFPQPEQPTPIQ
- Cross-reactive T cell response (subject A, 11-17yrs): 6 SFU
- Significant response as a percentage of maximal peptide SFU (subject D, 11-17yrs): ′′ (21-40% = ′′)
- Cross-reactive T cell response (subject D, 11-17yrs): 11 SFU
- Significant response as a percentage of maximal peptide SFU (subject E, 11-17yrs): ′′ (21-40% = ′′)
- Cross-reactive T cell response (subject E, 11-17yrs): 63 SFU
- Cross-reactive T cell response (subject F, 11-17yrs): 73 SFU
- Cross-reactive T cell response (subject G, 11-17yrs): 1 SFU
- Cross-reactive T cell response (subject H): 1 SFU
- Cross-reactive T cell response [1]: 0 SFU
- Significant response as a percentage of maximal peptide SFU (subject J): ′′′ (41-70% = ′′′)
- Cross-reactive T cell response [2]: 86 SFU
- Cross-reactive T cell response [3]: 7 SFU
- Significant response as a percentage of maximal peptide SFU (subject P, 11-17yrs): ′′ (21-40% = ′′)
- Cross-reactive T cell response (subject P, 11-17yrs): 23 SFU
- Significant response as a percentage of maximal peptide SFU (subject Q, 11-17yrs): ′′′ (41-70% = ′′′)
- Cross-reactive T cell response (subject Q, 11-17yrs): 39 SFU
- Significant response as a percentage of maximal peptide SFU (subject T, 11-17yrs): ′′′ (41-70% = ′′′)
- Cross-reactive T cell response (subject T, 11-17yrs): 61 SFU
- Significant response as a percentage of maximal peptide SFU (subject U, 11-17yrs): ′′ (21-40% = ′′)
- Cross-reactive T cell response (subject U, 11-17yrs): 21 SFU
- Cross-reactive T cell response [4]: 5 SFU
- Cross-reactive T cell response [5]: 0 SFU
- Cross-reactive T cell response [6]: 4 SFU
- Significant response as a percentage of maximal peptide SFU (subject five): + (>70% = +)
- Cross-reactive T cell response [7]: 38 SFU
- Cross-reactive T cell response (subject nine, 11-17yrs): 2 SFU
- Cross-reactive T cell response [8]: 6 SFU
- Significant response as a percentage of maximal peptide SFU (subject six): + (>70% = +)
- Cross-reactive T cell response [9]: 12 SFU
- Cross-reactive T cell response [10]: 8 SFU
- Significant response as a percentage of maximal peptide SFU (subject two): ′′ (21-40% = ′′)
- Cross-reactive T cell response [11]: 20 SFU

Sequence: QPFPQPEQQLPLQ
- Cross-reactive T cell response (subject A, 11-17yrs): 1 SFU
- Cross-reactive T cell response (subject D, 11-17yrs): 5 SFU
- Significant response as a percentage of maximal peptide SFU (subject E, 11-17yrs): ′ (11-20% = ′)
- Cross-reactive T cell response (subject E, 11-17yrs): 30 SFU
- Cross-reactive T cell response (subject F, 11-17yrs): 5 SFU
- Cross-reactive T cell response (subject G, 11-17yrs): 1 SFU
- Cross-reactive T cell response (subject H): 1 SFU
- Cross-reactive T cell response [1]: 3 SFU
- Significant response as a percentage of maximal peptide SFU (subject J): ′′′ (41-70% = ′′′)
- Cross-reactive T cell response [2]: 79 SFU
- Cross-reactive T cell response [3]: 9 SFU
- Cross-reactive T cell response (subject P, 11-17yrs): 11 SFU
- Significant response as a percentage of maximal peptide SFU (subject Q, 11-17yrs): ′ (11-20% = ′)
- Cross-reactive T cell response (subject Q, 11-17yrs): 11 SFU
- Significant response as a percentage of maximal peptide SFU (subject T, 11-17yrs): ′′ (21-40% = ′′)
- Cross-reactive T cell response (subject T, 11-17yrs): 27 SFU
- Cross-reactive T cell response (subject U, 11-17yrs): 4 SFU
- Cross-reactive T cell response [4]: 3 SFU
- Cross-reactive T cell response [5]: 3 SFU
- Cross-reactive T cell response [6]: 5 SFU
- Significant response as a percentage of maximal peptide SFU (subject five): ′′ (21-40% = ′′)
- Cross-reactive T cell response [7]: 11 SFU
- Cross-reactive T cell response (subject nine, 11-17yrs): 3 SFU
- Cross-reactive T cell response [8]: 11 SFU
- Significant response as a percentage of maximal peptide SFU (subject six): + (>70% = +)
- Cross-reactive T cell response [9]: 11 SFU
- Cross-reactive T cell response [10]: 6 SFU
- Cross-reactive T cell response [11]: 2 SFU
